# Measurements from patent US20190365784A1, “USE OF BRASSINOSTEROID ANALOGS FOR THE TREATMENT OF DERMAL DISORDERS BY SELECTIVELY MODULATING LIVER X RECEPTORS (LXR) AND DERMAL DISEASE TREATMENT BY BRASSINOSTEROID ANALOGS ACTING AS SELECTIVE LIVER X RECEPTOR (LXR) MODULATORS” (CONSEJO NACIONAL DE INVESTIGACIONES CIENTÍFICAS Y TÉCNICAS …, priority 2015, published 2019).
# Marks after values point to notes of the source that are not given here.
# Key:
# [1] = test system: imiquimod-induced skin lesions; assay: Imiquimod-induced psoriasis model in mice: clinical signs and dorsal skin histopathology; type: in vivo; set-up: key to Hyperkeratosis, protective effect / Epidermal serocellular crust, protective effect / Acanthosis, protective effect / Dermal inflammatory infiltrates, protective effect: the (+) sign represents the presence of a protective effect; a (−) sign represents the absence of protective effect; conditions: for Acanthosis (0-4), group mean score of dorsal skin / Basliar papillae (0-4), group mean score of dorsal skin / Dermal inflammatory infiltrates (0-4), group mean score of dorsal skin / Dilated tortuous capillaries (0-4), group mean score of dorsal skin / Epidermal micro-abscesses (0-4), group mean score of dorsal skin / Epidermal serocellular rust (0-4), group mean score of dorsal skin / Hyperkeratosis (0-4), group mean score of dorsal skin / Mean Global Score, dorsal skin / Parakeratosis (0-4), group mean score of dorsal skin: psoriatic mice; for Acanthosis (0-4), group mean score of dorsal skin / Basliar papillae (0-4), group mean score of dorsal skin / Dermal inflammatory infiltrates (0-4), group mean score of dorsal skin / Dilated tortuous capillaries (0-4), group mean score of dorsal skin / Epidermal micro-abscesses (0-4), group mean score of dorsal skin / Epidermal serocellular rust (0-4), group mean score of dorsal skin / Hyperkeratosis (0-4), group mean score of dorsal skin / Mean Global Score, dorsal skin / Parakeratosis (0-4), group mean score of dorsal skin / severity of microscopic alterations of back skin (histopathology): QD 9 days
# From the text: To test whether Compound I might ameliorate the signs of psoriasis, we topically administered Compound I to imiquimod-induced skin lesions in mice. The imiquimod mouse model of psoriasis-like skin inflammation is characterized by lesions that show augmented epidermal cell proliferation, abnormal keratinocyte differentiation, neutrophil accumulation in epidermal microabcesses, and neoangiogenesis.
# For this study, thirty two 8-week old female Balbc/J mice were housed […] in positively ventilated polysulfonate cages with HEPA filtered air at a density of 4 mice per cage. The animal room was lighted entirely with artificial fluorescent lighting, with a controlled 12 h light/dark cycle (6 am to 6 pm light). The normal temperature and relative humidity ranges in the animal rooms were 22±4° C. and 50±15%, respectively. The animal rooms were set to have a minimum of 15 air exchanges per hour. Filtered tap water, acidified to a pH of 2.5 to 3.0, and standard rodent chow were provided ad libitum. After 1 week of acclimation mice were randomized into 4 groups (n=8/each) as shown below (Table 1).
# 1. IMQ induction: On day 0 all grouped mice received a topical dose of 62.5 mg of IMQ cream (5%) on the shaved back for 6 consecutive days. (Day 0 to Day 5)
# 3. Mice were scored for clinical parameters of disease based on degree of erythema, scaling and thickening independently on a scale of 0-4. 0=none; 1=slight; 2=moderate; 3=moderate to severe: 4=severe. These observations were recorded on day 0, 2, 4, 6, and 8. On the same days, back skin thickness was measured with calipers.
# 5. Mice were sacrificed on day 10 by CO2 asphyxiation.
# 6. A part of the back skin was harvested and fixed for histology. Slides were processed, stained with H&E for histology assessment.
# Dorsal skin sections were evaluated histopathologically for evidence of key features of psoriasis, such as parakeratosis, hyperkeratosis (thickening of the stratum corneum), acanthosis (diffuse thickening of the stratum spinosum of the skin), epidermal serocellular crusts, epidermal microabscesses, basilar papillae, dermal inflammatory infiltrates and dilated tortuous capillaries (Table 2. Histopathological scoring system and definition used in the Imiquimod psoriasis model).
# [2] = Plasma total cholesterol, HDL-cholesterol and triglyceride in C57BI mice after 5 days i.p. treatment; type: in vivo; conditions: male C57BI mice; Compound I 10 mg/kg i.p. daily for 5 days
# Description: Administration of synthetic LXR agonists such as T0901317 induces a marked increment of liver lipogenesis that leads to hepatic steatosis and plasma hypertriglyceridemia.
# Male C57BI mice received daily for 5 days intraperitoneal injections containing either 10 mg Compound I/kg, or 5 mg T0901317/kg, or vehicle [90% (v/v) DMSO in apyrogenic sterile water]. On the sixth day of the assay, the animals were fasted for 4 h before decapitation. Blood plasma was obtained for the determination of total cholesterol, HDL-cholesterol and triglyceride contents. The livers were resected, and their weights and colors used as gross markers of increased liver triglyceride contents.
# [3] = 0.1% (w/v) Compound I vs 0.1% (w/v) Clobetasol as printed
# [4] = topical 0.10%, summary of Table 3
smiles,measurement,setting,value
"CC[C@@H](C(C)C)[C@H](O)[C@@H](O)[C@@H](C)[C@H]1CC[C@H]2[C@@H]3CCC4=CC(=O)CC[C@]4(C)[C@H]3CC[C@]12C [Compound I, (22S,23S)-22,23-dihydroxystigmast-4-en-3-one]",epidermal sero-cellular crust reduced relative to Clobetasol-treated mice,[1]; [3],50%
same,hyperkeratosis reduced relative to Clobetasol-treated mice,[1]; [3],50%
same,"global response score of dorsal skin, lower vs. vehicle-treated animals","[1]; Compound I 0.1% topical, 9 days",~26%
same,back skin thickening (calipers),"[1]; after 9 days topical, Compound I 0.05% and 0.1% (w/v), clobetasol 0.05% cream",None of the assayed Compound I's doses prevented back skin thickening
same,erythema reduction relative to vehicle-treated mice,"[1]; day 8, both Compound I doses 0.05% and 0.1% (w/v), topical",50%
same,"skin erythema (clinical score 0-4, in words)","[1]; day 8, topical QD 9 days, both Compound I doses 0.05% and 0.1% (w/v), clobetasol 0.05% cream",slight
same,"scaling (clinical score 0-4, in words)","[1]; day 8, topical QD 9 days, both Compound I doses, clobetasol 0.05% cream",no improvement
same,"Acanthosis (0-4), group mean score of dorsal skin",[1]; topical 0.05%,2.4
same,"Basliar papillae (0-4), group mean score of dorsal skin",[1]; topical 0.05%,0.0
same,"Dermal inflammatory infiltrates (0-4), group mean score of dorsal skin",[1]; topical 0.05%,2.0
same,"Dilated tortuous capillaries (0-4), group mean score of dorsal skin",[1]; topical 0.05%,0.0
same,"Epidermal micro-abscesses (0-4), group mean score of dorsal skin",[1]; topical 0.05%,0.0
same,"Epidermal serocellular rust (0-4), group mean score of dorsal skin",[1]; topical 0.05%,0.4
same,"Hyperkeratosis (0-4), group mean score of dorsal skin",[1]; topical 0.05%,1.3*
same,"Mean Global Score, dorsal skin",[1]; topical 0.05%,6.4
same,"Parakeratosis (0-4), group mean score of dorsal skin",[1]; topical 0.05%,0.4
same,"Acanthosis (0-4), group mean score of dorsal skin",[1]; topical 0.10%,2.1
same,"Basliar papillae (0-4), group mean score of dorsal skin",[1]; topical 0.10%,0.0
same,"Dermal inflammatory infiltrates (0-4), group mean score of dorsal skin",[1]; topical 0.10%,1.5
same,"Dilated tortuous capillaries (0-4), group mean score of dorsal skin",[1]; topical 0.10%,0.0
same,"Epidermal micro-abscesses (0-4), group mean score of dorsal skin",[1]; topical 0.10%,0.0
same,"Epidermal serocellular rust (0-4), group mean score of dorsal skin",[1]; topical 0.10%,0.3†
same,"Hyperkeratosis (0-4), group mean score of dorsal skin",[1]; topical 0.10%,0.9**
same,"Mean Global Score, dorsal skin",[1]; topical 0.10%,4.9
same,"Parakeratosis (0-4), group mean score of dorsal skin",[1]; topical 0.10%,0.0
same,severity of microscopic alterations of back skin (histopathology),[1]; topical 0.05%,slightly lower severity
same,severity of microscopic alterations of back skin (histopathology),[1]; topical 0.10% (w/v),lower than in samples from vehicle-treated psoriatic controls and 0.05% (w/v) Compound I-treated mice
same,"Acanthosis, protective effect",[1]; [4],−
same,"Dermal inflammatory infiltrates, protective effect",[1]; [4],−
same,"Epidermal serocellular crust, protective effect",[1]; [4],+
same,"Hyperkeratosis, protective effect",[1]; [4],+
same,hypertriglyceridemia,[2],no signs
